# Measurements as given in patent publication US7825126B2 (The United States of America as represented by the …, priority 2004, dated 2010).
# Read-outs that look alike come from different tables or passages of the source.
# Columns and labels:
# [1] = biological target: T1, human A2A receptors (Homo sapiens, UniProt P29274); test: Binding at human A2A adenosine receptor ([3H]CGS21680, HEK-293 cell membranes); conditions: [3H]CGS 21680; for Ki: mean ± s.e.m., n = 3-5, read-out: Ki(hA2AAR)
# T1 construct: expressed in transfected cells
# T1 sequence (P29274 whole entry): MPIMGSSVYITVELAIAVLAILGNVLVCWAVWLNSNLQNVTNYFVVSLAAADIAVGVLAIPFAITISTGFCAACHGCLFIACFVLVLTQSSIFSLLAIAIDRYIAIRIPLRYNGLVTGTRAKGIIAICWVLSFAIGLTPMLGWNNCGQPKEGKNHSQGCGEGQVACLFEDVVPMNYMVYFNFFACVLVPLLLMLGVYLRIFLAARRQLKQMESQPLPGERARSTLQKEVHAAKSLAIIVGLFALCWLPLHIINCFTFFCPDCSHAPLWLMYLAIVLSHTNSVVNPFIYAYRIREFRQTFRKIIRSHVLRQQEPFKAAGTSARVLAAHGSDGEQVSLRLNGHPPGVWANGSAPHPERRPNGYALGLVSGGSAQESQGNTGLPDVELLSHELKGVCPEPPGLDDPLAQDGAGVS
# Method: (§1) Binding assays at the A1 and A2A receptors. […] Reaction was terminated by filtration with GF/B filters.
# (§2) Statistical analysis Binding and functional parameters were calculated using Prism 5.0 software (GraphPAD, San Diego, Calif., USA). IC50 values obtained from competition curves were converted to Ki values using the Cheng-Prusoff equation.
# [2] = biological target: T2, human A2B adenosine receptor (hA2BAR) (Homo sapiens, UniProt P29275); test: Activation of human A2B adenosine receptor at 10 μM; format: cell-based; conditions: CHO cells
# T2 sequence (P29275 1-332): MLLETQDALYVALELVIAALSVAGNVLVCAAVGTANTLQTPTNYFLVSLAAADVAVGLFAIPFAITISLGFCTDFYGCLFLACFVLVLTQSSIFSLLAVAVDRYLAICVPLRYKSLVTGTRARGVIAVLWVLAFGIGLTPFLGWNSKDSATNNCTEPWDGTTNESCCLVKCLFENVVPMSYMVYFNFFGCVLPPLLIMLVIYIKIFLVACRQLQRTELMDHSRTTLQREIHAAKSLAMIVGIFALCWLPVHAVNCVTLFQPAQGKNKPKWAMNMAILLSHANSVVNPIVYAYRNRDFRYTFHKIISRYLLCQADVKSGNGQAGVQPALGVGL
# [3] = biological target: T3, human A1 receptors (Homo sapiens, UniProt P30542); test: Binding at human A1 adenosine receptor ([3H]R-PIA, CHO cell membranes); conditions: for Ki: mean ± s.e.m., n = 3-5, read-out: Ki(hA1AR)
# T3 construct: expressed in transfected cells
# T3 sequence (P30542 1-326): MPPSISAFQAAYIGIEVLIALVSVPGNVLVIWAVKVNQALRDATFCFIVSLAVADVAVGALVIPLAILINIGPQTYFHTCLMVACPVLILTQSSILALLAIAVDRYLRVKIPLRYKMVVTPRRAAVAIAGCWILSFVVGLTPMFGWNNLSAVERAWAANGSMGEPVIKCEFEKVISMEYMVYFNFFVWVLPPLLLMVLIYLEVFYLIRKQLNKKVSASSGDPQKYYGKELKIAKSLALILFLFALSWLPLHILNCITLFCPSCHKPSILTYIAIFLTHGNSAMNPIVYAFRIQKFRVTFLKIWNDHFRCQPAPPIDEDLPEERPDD
# Method: as §1, §2
# [4] = biological target: T4, human A3 adenosine receptor (Homo sapiens, UniProt P0DMS8); test: Cyclic AMP accumulation assay (inhibition of forskolin-stimulated cAMP), CHO cells expressing human A3 adenosine receptor; conditions: 10 μM, relative to 10 μM Cl-IB-MECA
# T4 sequence (P0DMS8 1-318): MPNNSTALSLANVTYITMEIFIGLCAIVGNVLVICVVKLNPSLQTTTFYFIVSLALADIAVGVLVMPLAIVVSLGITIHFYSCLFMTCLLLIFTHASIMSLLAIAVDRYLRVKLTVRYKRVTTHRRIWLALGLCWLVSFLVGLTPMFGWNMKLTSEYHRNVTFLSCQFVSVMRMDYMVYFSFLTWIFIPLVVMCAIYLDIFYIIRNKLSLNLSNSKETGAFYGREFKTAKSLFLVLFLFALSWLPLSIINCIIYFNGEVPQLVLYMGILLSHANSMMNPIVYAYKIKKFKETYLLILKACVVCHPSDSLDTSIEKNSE
# Method: The cyclic AMP accumulation assay was performed as follows. Intracellular cyclic AMP levels were measured with a competitive protein binding method. […] After centrifugation and resuspension in medium, cells were plated in 24-well plates in 1.0 ml medium. […] The reaction was terminated by removing the supernatant, and cells were lysed upon the addition of 200 μL of 0.1 M ice-cold HCl. The cell lysate was resuspended and stored at −20° C. For determination of cyclic AMP production, protein kinase A (PKA) was incubated with [^3H]cyclic AMP (2 nM) in K2HPO4/EDTA buffer (K2HPO4, 150 mM; EDTA, 10 mM), 20 μL of the cell lysate, and 30 μL 0.1 M HCl or 50 μL of cyclic AMP solution (0-16 pmol/200 μL for standard curve). Bound radioactivity was separated by rapid filtration through Whatman GF/C filters and washed once with cold buffer. Bound radioactivity was measured by liquid scintillation spectrometry.
# Forskolin (10 μM) was used to stimulate cyclic AMP levels.
# [5] = biological target: T4, human A3 adenosine receptor; parameters: expressed in transfected cells; host or cells: CHO cells; conditions: relative to 10 μM Cl-IB-MECA, data from literature (footnotes c, d, e, f); cited from earlier work
# [6] = biological target: T4, human A3 adenosine receptor; test: Binding at human A3 adenosine receptor ([125I]I-AB-MECA, CHO cell membranes); parameters: expressed in transfected cells; host or cells: CHO cells; conditions: [125I]I-AB-MECA; mean ± s.e.m., n = 3-5; read-out: Ki(hA3AR)
# Method: Striatal and forebrain tissues from Wistar rats were homogenized in ice-cold 50 mM Tris-HCl buffer, pH 7.4, using an electric homogenizer. The homogenate was centrifuged at 20,000 g for 10 min at 4° C., and the pellet was washed in fresh buffer. The final pellet was stored at −80° C. until the binding experiments. The protein concentration was measured using the Bradford assay. […] The mixtures were incubated at 37° C. for 60 min. […] Filters were washed three times with 9 ml ice-cold buffer. Radioactivity was determined in a Beckman 5500B γ-counter. Statistical analysis Binding and functional parameters were calculated using Prism 5.0 software (GraphPAD, San Diego, Calif., USA). IC50 values obtained from competition curves were converted to Ki values using the Cheng-Prusoff equation.
SMILES,Ki [1],% Activation (hA2BAR) at 10 μM [2],% displ. at 10 μM (hA2AAR) [1],also measured
"CNC(=O)[C@@]12C[C@@H]1[C@@H](n1cnc3c(N[C@@H]4C[C@H]4c4ccccc4)nc(Cl)nc31)[C@H](O)[C@@H]2O (relative stereo) [Compound 33, (1′S,2′R,3′S,4′R,5′S)-(4′-{2-chloro-6-[(trans-2-phenylcyclopropyl)amino]purin-9-yl}-2′,3′-dihydroxybicyclo[3.1.0]hexyl)-N-methylcarboxamide]",4800 ± 200 nM,48%,–,–
"CNC(=O)[C@@]12C[C@@H]1[C@@H](n1cnc3c(NCc4cccc(I)c4)nc(Cl)nc31)[C@H](O)[C@@H]2O [Compound 4, reference compound]",1600 ± 400 nM,–,–,Ki [3]: 65 ± 17 nM; % Activation (hA3AR) at 10 μM [4]: 3 ± 2%
"OC[C@H]1O[C@@H](n2cnc3c(NCc4cccc(Cl)c4)ncnc32)[C@H](O)[C@@H]1O [Compound 8, reference compound]",1400 ± 200 nM,–,–,% Activation (hA3AR) at 10 μM [5]: 80 ± 3^d %; Ki [3]: 20 ± 3 nM
"CNC(=O)[C@@]12C[C@@H]1[C@H](n1cnc3c(NC)nc(N)nc31)[C@H](O)[C@@H]2O [Compound 15, (1′S,2′R,3′S,4′S,5′S)-4′-[6-Methylamino-2-amino-purin-9-yl]-2′,3′-dihydroxy-bicyclo[3.1.0]hexane-1′-carboxylic acid methylamide]",–,–,17%,–
CNC(=O)[C@@]12C[C@@H]1[C@@H](n1cnc3c(NCc4cccc(I)c4)ncnc31)[C@H](O)[C@@H]2O [Compound 16],6200 ± 100 nM,–,–,% Activation (hA3AR) at 10 μM [5]: 100^e %; Ki [3]: 700 ± 270 nM
"CNC(=O)C12CC1C(n1cnc3c(NCc4cccc(F)c4)nc(Cl)nc31)C(O)C2O (stereo not drawn) [Compound 19, (1′S,2′R,3′S,4′S,5′S)-4′-[6-(3-Fluorobenzylamino)-2-chloro-purin-9-yl]-2′,3′-dihydroxy-bicyclo[3.1.0]hexane-1′-carboxylic acid methylamide]",5100 ± 200 nM,28%,–,–
"CNC(=O)[C@@]12C[C@@H]1[C@H](n1cnc3c(NCc4cc(Cl)ccc4Cl)nc(Cl)nc31)[C@H](O)[C@@H]2O [Compound 20, (1′S,2′R,3′S,4′S,5′S)-4′-[6-(2,5-Dichlorobenzylamino)-2-chloro-purin-9-yl]-2′,3′-dihydroxy-bicyclo[3.1.0]hexane-1′-carboxylic acid methyl amide]",1300 ± 100 nM,32%,–,–
"CNC(=O)C12CC1C(n1cnc3c(NCc4cc(I)ccc4Cl)nc(Cl)nc31)C(O)C2O (stereo not drawn) [Compound 21, (1′S,2′R,3′S,4′S,5′S)-4′-[6-(2-Chloro-5-iodo-benzylamino)-2-chloro-purin-9-yl]-2′,3′-dihydroxy-bicyclo[3.1.0]hexane-1′-carboxylic acid methylamide]",480 ± 20 nM,58%,–,–
"CNC(=O)C12CC1C(n1cnc3c(NCc4cc(Cl)ccc4OC)nc(Cl)nc31)C(O)C2O (stereo not drawn) [Compound 22, (1′S,2′R,3′S,4′S,5′S)-4′-[6-(5-Chloro-2-methoxy-benzylamino)-2-chloro-purin-9-yl]-2′,3′-dihydroxy-bicyclo[3.1.0]hexane-1′-carboxylic acid methylamide]",1200 ± 100 nM,37%,–,–
"CNC(=O)C12CC1C(n1cnc3c(NCc4cc(Cl)ccc4OCC(N)=O)nc(Cl)nc31)C(O)C2O (stereo not drawn) [Compound 23, (1′S,2′R,3′S,4′S,5′S)-4′-[6-(5-Chloro-2-(aminocarbonylmethyloxy)-benzylamino)-2-chloro-purin-9-yl]-2′,3′-dihydroxy-bicyclo[3.1.0]hexane-1′-carboxylic acid methylamide]",800 ± 70 nM,–,–,–
"CNC(=O)C12CC1C(n1cnc3c(NCc4cc(I)ccc4OC)nc(Cl)nc31)C(O)C2O (stereo not drawn) [Compound 25, (1′S,2′R,3′S,4′S,5′S)-4′-[6-(5-Iodo-2-methoxy-benzylamino)-2-chloro-purin-9-yl]-2′,3′-dihydroxy-bicyclo[3.1.0]hexane-1′-carboxylic acid methylamide]",430 ± 30 nM,46%,–,–
"CNC(=O)C12CC1C(n1cnc3c(NCc4ccccc4C)nc(Cl)nc31)C(O)C2O (stereo not drawn) [Compound 27, (1′S,2′R,3′S,4′S,5′S)-4′-[6-(2-Methyl-benzylamino)-2-chloro-purin-9-yl]-2′,3′-dihydroxy-bicyclo[3.1.0]hexane-1′-carboxylic acid methylamide]",3800 ± 200 nM,24%,–,–
"CNC(=O)C12CC1C(n1cnc3c(NCc4cccc(C)c4)nc(Cl)nc31)C(O)C2O (stereo not drawn) [Compound 28, (1′S,2′R,3′S,4′S,5′S)-4′-[6-(3-Methyl-benzylamino)-2-chloro-purin-9-yl]-2′,3′-dihydroxy-bicyclo[3.1.0]hexane-1′-carboxylic acid methylamide]",3700 ± 600 nM,46%,–,–
"CNC(=O)C12CC1C(n1cnc3c(NCc4cccc(C#CCO)c4)nc(Cl)nc31)C(O)C2O (stereo not drawn) [Compound 29, (1′S,2′R,3′S,4′S,5′S)-4′-[6-(3-(3-Hydroxypropynyl)-benzylamino)-2-chloro-purin-9-yl]-2′,3′-dihydroxy-bicyclo[3.1.0]hexane-1′-carboxylic acid methylamide]",–,28%,56%,–
"CNC(=O)C12CC1C(n1cnc3c(NCc4cc(C#CCO)ccc4Cl)nc(Cl)nc31)C(O)C2O (stereo not drawn) [Compound 30, (1′S,2′R,3′S,4′S,5′S)-4′-[6-(2-Chloro-5-(3-hydroxypropynyl)-benzylamino)-2-chloro-purin-9-yl]-2′,3′-dihydroxy-bicyclo[3.1.0]hexane-1′-carboxylic acid methylamide]",–,6%,12%,% displ. at 10 μM (hA1AR) ([3]; 10 μM): 14%; % Activation (hA3AR) at 10 μM [4]: 108 ± 5%; Ki [6]: 217 ± 27 nM
"CNC(=O)C12CC1C(n1cnc3c(NCc4ccc(N)cc4)nc(Cl)nc31)C(O)C2O (stereo not drawn) [Compound 31a, (1′S,2′R,3′S,4′S,5′S)-4′-[6-(4-Amino-benzylamino)-2-chloro-purin-9-yl]-2′,3′-dihydroxy-bicyclo[3.1.0]hexane-1′-carboxylic acid methylamide]",–,22%,28%,–
CNC(=O)[C@@]12C[C@@H]1[C@@H](n1cnc3c(NCc4ccc(N)c(I)c4)nc(Cl)nc31)[C@H](O)[C@@H]2O [Compound 31b],1100 ± 100 nM,–,–,–
"CNC(=O)C12CC1C(n1cnc3c(NCc4cccnc4)nc(Cl)nc31)C(O)C2O (stereo not drawn) [Compound 32, (1′S,2′R,3′S,4′S,5′S)-4′-[6-(3-Pyridylmethylamino)-2-chloro-purin-9-yl]-2′,3′-dihydroxy-bicyclo[3.1.0]hexane-1′-carboxylic acid methylamide]",–,4%,33%,–
"CCOC(=O)[C@@]12C[C@@H]1[C@H](n1cnc3c(NCc4cccc(Cl)c4)nc(I)nc31)[C@H](O)[C@@H]2O [Compound 35, (1′S,2′R,3′S,4′S,5′S)-4′-[6-(3-Chlorobenzylamino)-2-iodo-purin-9-yl]-2′,3′-dihydroxy-bicyclo[3.1.0]hexane-1′-carboxylic acid ethyl ester]",–,–,43%,–
CNC(=O)C12CC1C(n1cnc3c(NCc4cccc(Cl)c4)nc(SC)nc31)C(O)C2O (stereo not drawn) [Compound 36],–,–,52%,% Activation (hA3AR) at 10 μM [4]: 100 ± 4%
